# According to ChEMBL document CHEMBL4673219, “Novel 5,6-disubstituted pyrrolo[2,3-d]pyrimidine derivatives as broad spectrum antiproliferative agents: Synthesis, cell based assays, kinase profile and molecular docking study” (Bioorg Med Chem, 2018):
# pIC50: −log10 of the molar value. Values joined by “and” are separate entries in the source; they are usually repeats but may differ in a detail not shown here. Equal values may be shown once.
# Experiments:
# HOP-62 = assay: Growth inhibition of human HOP-62 cells assessed as growth percentage at 1 uM incubated for 48 hrs by sulforhodamine B assay relative to control; type: functional; conditions: read-out: Activity
# SF-295 [1] = assay: Growth inhibition of human SF-295 cells incubated for 48 hrs by sulforhodamine B assay; type: functional
# SNB-19 [2] = assay: Growth inhibition of human SNB-19 cells assessed as growth percentage at 10 uM incubated for 48 hrs by sulforhodamine B assay relative to control; type: functional; conditions: read-out: Activity
# HT-29 = assay: Growth inhibition of human HT-29 cells assessed as growth percentage at 0.1 uM incubated for 48 hrs by sulforhodamine B assay relative to control; type: functional; conditions: read-out: Activity
# K562 [3] = assay: Growth inhibition of human K562 cells incubated for 48 hrs by sulforhodamine B assay; type: functional
# A498 = assay: Growth inhibition of human A498 cells assessed as growth percentage at 10 uM incubated for 48 hrs by sulforhodamine B assay relative to control; type: functional; conditions: read-out: Activity
# SR = assay: Growth inhibition of human SR cells assessed as growth percentage at 10 uM incubated for 48 hrs by sulforhodamine B assay relative to control; type: functional; conditions: read-out: Activity
# TK-10 = assay: Growth inhibition of human TK-10 cells assessed as growth percentage at 1 uM incubated for 48 hrs by sulforhodamine B assay relative to control; type: functional; conditions: read-out: Activity
# HCC 2998 = assay: Growth inhibition of human HCC 2998 cells assessed as growth percentage at 10 uM incubated for 48 hrs by sulforhodamine B assay relative to control; type: functional; conditions: read-out: Activity
# SK-OV-3 = assay: Growth inhibition of human SK-OV-3 cells assessed as growth percentage at 0.1 uM incubated for 48 hrs by sulforhodamine B assay relative to control; type: functional; conditions: read-out: Activity
# SF-268 = assay: Growth inhibition of human SF-268 cells assessed as growth percentage at 10 uM incubated for 48 hrs by sulforhodamine B assay relative to control; type: functional; conditions: read-out: Activity
# NCI-H23 = assay: Growth inhibition of human NCI-H23 cells assessed as growth percentage at 100 uM incubated for 48 hrs by sulforhodamine B assay relative to control; type: functional; conditions: read-out: Activity
# CAKI-1 [4] = assay: Growth inhibition of human CAKI-1 cells assessed as growth percentage at 0.01 uM incubated for 48 hrs by sulforhodamine B assay relative to control; type: functional; conditions: read-out: Activity
# CAKI-1 [5] = assay: Growth inhibition of human CAKI-1 cells assessed as growth percentage at 1 uM incubated for 48 hrs by sulforhodamine B assay relative to control; type: functional; conditions: read-out: Activity
# OVCAR-3 [6] = assay: Growth inhibition of human OVCAR-3 cells assessed as growth percentage at 0.01 uM incubated for 48 hrs by sulforhodamine B assay relative to control; type: functional; conditions: read-out: Activity
# UACC-62 = assay: Growth inhibition of human UACC-62 cells incubated for 48 hrs by sulforhodamine B assay; type: functional
# U-251 = assay: Growth inhibition of human U-251 cells assessed as growth percentage at 100 uM incubated for 48 hrs by sulforhodamine B assay relative to control; type: functional; conditions: read-out: Activity
# HCT-15 = assay: Growth inhibition of human HCT-15 cells assessed as growth percentage at 100 uM incubated for 48 hrs by sulforhodamine B assay relative to control; type: functional; conditions: read-out: Activity
# NCI/ADR-RES = assay: Growth inhibition of human NCI/ADR-RES cells assessed as growth percentage at 10 uM incubated for 48 hrs by sulforhodamine B assay relative to control; type: functional; conditions: read-out: Activity
# UO-31 [7] = assay: Growth inhibition of human UO-31 cells assessed as growth percentage at 0.01 uM incubated for 48 hrs by sulforhodamine B assay relative to control; type: functional; conditions: read-out: Activity
# OVCAR-3 [8] = assay: Growth inhibition of human OVCAR-3 cells incubated for 48 hrs by sulforhodamine B assay; type: functional
# SF-295 [9] = assay: Growth inhibition of human SF-295 cells assessed as growth percentage at 1 uM incubated for 48 hrs by sulforhodamine B assay relative to control; type: functional; conditions: read-out: Activity
# HOP-92 [10] = assay: Growth inhibition of human HOP-92 cells assessed as growth percentage at 10 uM incubated for 48 hrs by sulforhodamine B assay relative to control; type: functional; conditions: read-out: Activity
# CAKI-1 [11] = assay: Growth inhibition of human CAKI-1 cells incubated for 48 hrs by sulforhodamine B assay; type: functional; conditions: Homo sapiens
# UO-31 [12] = assay: Growth inhibition of human UO-31 cells assessed as growth percentage at 100 uM incubated for 48 hrs by sulforhodamine B assay relative to control; type: functional; conditions: read-out: Activity
# HOP-92 [13] = assay: Growth inhibition of human HOP-92 cells assessed as growth percentage at 0.1 uM incubated for 48 hrs by sulforhodamine B assay relative to control; type: functional; conditions: read-out: Activity
# MOLT-4 = assay: Growth inhibition of human MOLT-4 cells assessed as growth percentage at 1 uM incubated for 48 hrs by sulforhodamine B assay relative to control; type: functional; conditions: read-out: Activity
# UO-31 [14] = assay: Growth inhibition of human UO-31 cells incubated for 48 hrs by sulforhodamine B assay; type: functional
# SNB-19 [15] = assay: Growth inhibition of human SNB-19 cells assessed as growth percentage at 0.1 uM incubated for 48 hrs by sulforhodamine B assay relative to control; type: functional; conditions: read-out: Activity
# CCRF-CEM = assay: Growth inhibition of human CCRF-CEM cells assessed as growth percentage at 0.01 uM incubated for 48 hrs by sulforhodamine B assay relative to control; type: functional; conditions: read-out: Activity
# [16] = molecular target: High affinity nerve growth factor receptor (Homo sapiens, UniProt P04629); assay: Inhibition of human Trk-A using myelin basic protein as substrate incubated for 40 mins in presence of [gamma33P]ATP by scintillation counting method
# Chain of High affinity nerve growth factor receptor (P04629 whole entry): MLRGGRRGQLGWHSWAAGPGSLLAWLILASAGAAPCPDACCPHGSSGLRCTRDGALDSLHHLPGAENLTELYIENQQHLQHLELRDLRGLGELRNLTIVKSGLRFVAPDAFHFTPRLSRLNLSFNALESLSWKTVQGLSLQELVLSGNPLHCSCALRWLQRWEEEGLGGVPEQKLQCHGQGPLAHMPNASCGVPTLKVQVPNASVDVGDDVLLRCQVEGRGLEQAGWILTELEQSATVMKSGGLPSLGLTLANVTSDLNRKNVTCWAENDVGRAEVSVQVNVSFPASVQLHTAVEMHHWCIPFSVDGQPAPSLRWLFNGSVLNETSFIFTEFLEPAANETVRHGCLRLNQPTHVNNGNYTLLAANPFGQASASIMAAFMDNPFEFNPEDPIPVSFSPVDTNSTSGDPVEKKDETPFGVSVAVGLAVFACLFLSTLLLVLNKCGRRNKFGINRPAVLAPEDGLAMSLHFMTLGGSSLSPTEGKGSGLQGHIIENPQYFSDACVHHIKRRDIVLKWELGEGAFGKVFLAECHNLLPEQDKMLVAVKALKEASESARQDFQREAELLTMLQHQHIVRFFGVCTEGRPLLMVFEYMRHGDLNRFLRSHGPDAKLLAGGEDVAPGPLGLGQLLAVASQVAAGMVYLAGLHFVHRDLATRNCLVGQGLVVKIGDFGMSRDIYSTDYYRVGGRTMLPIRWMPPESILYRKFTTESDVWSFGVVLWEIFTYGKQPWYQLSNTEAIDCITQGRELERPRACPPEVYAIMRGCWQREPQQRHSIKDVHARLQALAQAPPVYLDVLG
# SNB-75 = assay: Growth inhibition of human SNB-75 cells incubated for 48 hrs by sulforhodamine B assay; type: functional
# MDA-MB-468 = assay: Growth inhibition of human MDA-MB-468 cells incubated for 48 hrs by sulforhodamine B assay; type: functional
# K562 [17] = assay: Growth inhibition of human K562 cells assessed as growth percentage at 100 uM incubated for 48 hrs by sulforhodamine B assay relative to control; type: functional; conditions: read-out: Activity
# SF-295 [18] = assay: Growth inhibition of human SF-295 cells assessed as growth percentage at 0.01 uM incubated for 48 hrs by sulforhodamine B assay relative to control; type: functional; conditions: read-out: Activity
# Malme-3M = assay: Growth inhibition of human Malme-3M cells assessed as growth percentage at 0.1 uM incubated for 48 hrs by sulforhodamine B assay relative to control; type: functional; conditions: read-out: Activity
# SW-620 = assay: Growth inhibition of human SW-620 cells assessed as growth percentage at 1 uM incubated for 48 hrs by sulforhodamine B assay relative to control; type: functional; conditions: read-out: Activity
# OVCAR-4 = assay: Growth inhibition of human OVCAR-4 cells assessed as growth percentage at 10 uM incubated for 48 hrs by sulforhodamine B assay relative to control; type: functional; conditions: read-out: Activity
structure (smiles),measurement,setting,value
CCCCCCCC(=O)Nc1nc2[nH]c(CN3CCN(Cc4cccc(F)c4)CC3)c(CN3CCN(Cc4cccc(F)c4)CC3)c2c(=O)[nH]1,growth at 1 µM,HOP-62,75%
same,GI50,SF-295 [1],1410 nM
same,LC50,SF-295 [1],5790 nM
same,TGI,SF-295 [1],2850 nM
same,growth at 10 µM,SNB-19 [2],-81.6%
same,growth at 0.1 µM,HT-29,104%
same,GI50,K562 [3]; 48 h,210 nM
same,LC50 (concentration killing 50% of cells),K562 [3]; 48 h,> 100000 nM
same,TGI,K562 [3]; 48 h,550 nM
same,GI50,"K562 [3]; Homo sapiens, K562, 48 h",205 nM
same,LC50 (concentration killing 50% of cells),"K562 [3]; Homo sapiens, K562, 48 h",100000 nM
same,TGI,"K562 [3]; Homo sapiens, K562, 48 h",545 nM
same,growth at 10 µM,A498,61.6%
same,growth at 10 µM,SR,-52.8%
same,growth at 1 µM,TK-10,94%
same,growth at 10 µM,HCC 2998,-81.8%
same,growth at 0.1 µM,SK-OV-3,94%
same,growth at 10 µM,SF-268,-92.2%
same,growth at 100 µM,NCI-H23,-53%
same,growth at 0.01 µM,CAKI-1 [4],92%
same,growth at 1 µM,CAKI-1 [5],70%
same,growth at 0.01 µM,OVCAR-3 [6],100%
same,GI50,UACC-62; 48 h,1680 nM
same,TGI,UACC-62; 48 h,3150 nM
same,CC50,"UACC-62; 48 h, read-out: LC50 (the source's name)",590 nM and 5900 nM
same,GI50,"UACC-62; Homo sapiens, UACC-62, 48 h",1800 nM
same,TGI,"UACC-62; Homo sapiens, UACC-62, 48 h",3420 nM
same,growth at 100 µM,U-251,-95%
same,growth at 100 µM,HCT-15,-85%
same,growth at 10 µM,NCI/ADR-RES,-66.1%
same,growth at 0.01 µM,UO-31 [7],77%
same,GI50,OVCAR-3 [8]; 48 h,780 nM
same,TGI,"OVCAR-3 [8]; Homo sapiens, OVCAR-3",2170 nM
same,GI50,"OVCAR-3 [8]; Homo sapiens, OVCAR-3, 48 h",781 nM
same,CC50,"OVCAR-3 [8]; Homo sapiens, OVCAR-3, read-out: LC50 (the source's name)",5280 nM
same,growth at 1 µM,SF-295 [9],74%
same,growth at 10 µM,HOP-92 [10],-7.31%
same,GI50,CAKI-1 [11]; CAKI-1,1320 nM
same,TGI,"CAKI-1 [11]; CAKI-1, 48 h",2610 nM
same,CC50,"CAKI-1 [11]; CAKI-1, 48 h, read-out: LC50 (the source's name)",5180 nM
same,growth at 100 µM,UO-31 [12],-81%
same,growth at 0.1 µM,HOP-92 [13],86%
same,growth at 1 µM,MOLT-4,-15%
same,GI50,UO-31 [14]; 48 h,3800 nM and 380 nM
same,LC50 (concentration killing 50% of cells),"UO-31 [14]; Homo sapiens, UO-31",4810 nM
same,TGI,"UO-31 [14]; Homo sapiens, UO-31, 48 h",1700 nM
same,growth at 0.1 µM,SNB-19 [15],98%
same,growth at 0.01 µM,CCRF-CEM,98%
same,pIC50,[16],5.65
same,GI50,SNB-75,1340 nM
same,"LC50 (lethal concentration, 50% cell kill)",SNB-75,5280 nM
same,TGI,SNB-75,2660 nM
same,GI50,MDA-MB-468; 48 h,480 nM
same,LC50 (concentration killing 50% of cells),"MDA-MB-468; Homo sapiens, MDA-MB-468",5310 nM
same,TGI,"MDA-MB-468; Homo sapiens, MDA-MB-468",1840 nM
same,GI50,"MDA-MB-468; Homo sapiens, MDA-MB-468, 48 h",477 nM
same,growth at 100 µM,K562 [17],-1%
same,growth at 0.01 µM,SF-295 [18],97%
same,growth at 0.1 µM,Malme-3M,96%
same,growth at 1 µM,SW-620,-72%
same,growth at 10 µM,OVCAR-4,-94%
